In assay [1] the target is Calcium/calmodulin-dependent protein kinase type 1D (Homo sapiens) (UniProt Q8IU85). In words: Selectivity interaction (ActivX KiNativ screen (kinase selectivity in THP-1 cell lysates)) EUB0000639a CAMK1D. The assay is classed as subcellular. The note with it: lysate, at 5 µM.
The test system of assay [2] is T1, Receptor-type tyrosine-protein kinase FLT3 (Homo sapiens), P36888 [K663Q].
T1 sequence (whole entry): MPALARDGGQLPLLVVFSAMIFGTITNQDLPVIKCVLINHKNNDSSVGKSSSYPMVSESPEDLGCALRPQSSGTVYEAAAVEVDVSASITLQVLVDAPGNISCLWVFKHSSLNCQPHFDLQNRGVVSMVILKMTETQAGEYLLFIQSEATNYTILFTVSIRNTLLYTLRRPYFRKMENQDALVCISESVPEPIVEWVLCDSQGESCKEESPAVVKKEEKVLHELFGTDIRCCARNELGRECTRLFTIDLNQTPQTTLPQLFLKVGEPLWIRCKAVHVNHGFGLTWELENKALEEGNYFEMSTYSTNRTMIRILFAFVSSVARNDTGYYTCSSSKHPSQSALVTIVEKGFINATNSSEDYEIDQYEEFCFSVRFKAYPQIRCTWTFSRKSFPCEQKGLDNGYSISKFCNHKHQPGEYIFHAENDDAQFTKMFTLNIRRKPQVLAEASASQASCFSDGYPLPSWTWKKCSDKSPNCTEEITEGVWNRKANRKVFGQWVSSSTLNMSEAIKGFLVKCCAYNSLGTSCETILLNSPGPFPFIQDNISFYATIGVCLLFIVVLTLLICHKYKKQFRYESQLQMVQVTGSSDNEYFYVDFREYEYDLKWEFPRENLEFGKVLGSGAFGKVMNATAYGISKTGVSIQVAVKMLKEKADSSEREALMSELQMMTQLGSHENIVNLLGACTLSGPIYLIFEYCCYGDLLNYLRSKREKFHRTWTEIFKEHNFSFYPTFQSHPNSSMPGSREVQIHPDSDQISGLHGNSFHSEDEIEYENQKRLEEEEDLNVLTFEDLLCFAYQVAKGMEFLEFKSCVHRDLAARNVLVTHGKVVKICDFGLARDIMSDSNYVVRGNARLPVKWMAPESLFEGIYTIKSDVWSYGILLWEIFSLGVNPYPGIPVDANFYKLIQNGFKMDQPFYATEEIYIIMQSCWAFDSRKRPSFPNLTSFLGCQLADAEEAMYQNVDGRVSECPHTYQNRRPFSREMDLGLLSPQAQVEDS
In words: (§1) Selectivity interaction (KinomeScan (DiscoverX)) EUB0000655a FLT3. The note with it: at 10 µM.

The subject of assay [3] is T2, Receptor-type tyrosine-protein kinase FLT3 (Homo sapiens), P36888 [D835H].
T2 sequence (whole entry): T1 sequence (whole entry) with Q663K, D835H
Described as §1. The note with it: at 10 µM.

Assay [4] has as its system T3, Receptor-type tyrosine-protein kinase FLT3 (Homo sapiens), P36888 [N841I].
T3 sequence (whole entry): T1 sequence (whole entry) with Q663K, N841I
Described as §1. The note with it: at 10 µM.

SMILES strings stand for the structures. Substitutions are numbered along the chain they refer to.

Chain of Calcium/calmodulin-dependent protein kinase type 1D (Homo sapiens) (Q8IU85 whole entry, looked up): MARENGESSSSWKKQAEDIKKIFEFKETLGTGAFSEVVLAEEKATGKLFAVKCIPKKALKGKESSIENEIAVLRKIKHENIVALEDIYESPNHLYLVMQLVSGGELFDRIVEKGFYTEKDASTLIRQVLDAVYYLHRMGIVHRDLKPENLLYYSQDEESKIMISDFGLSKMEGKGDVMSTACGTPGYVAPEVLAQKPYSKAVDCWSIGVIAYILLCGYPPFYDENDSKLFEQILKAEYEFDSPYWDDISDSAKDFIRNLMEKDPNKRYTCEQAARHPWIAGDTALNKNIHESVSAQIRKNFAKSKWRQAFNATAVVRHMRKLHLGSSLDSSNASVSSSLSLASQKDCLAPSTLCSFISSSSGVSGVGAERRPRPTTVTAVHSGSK

For the compound `CC[C@@H]1[C@H](F)C(=O)N[C@@H]1COc1nccc2cc(C(N)=O)c(OC)cc12` [ZIMLOVISERTIB], in assay [1], the % of inhibition came to 16.3%.
`CN(C)CCOc1ccc(-c2nc(-c3ccncc3)c(-c3ccc4c(c3)CC/C4=N\O)[nH]2)cc1`: the % of control stood at 90% in assay [2], 85% in assay [3] and 81% in assay [4].
